According to patent US9999656B2, “Treatment of short bowel syndrome patients with colon-in-continuity” (Shire-NPS Pharmaceuticals, Inc., priority 2004, dated 2018):

Legend:
[1] = system: patients with short bowel syndrome (SBS); assay: 72-hour nutrient balance studies in open-label pilot study of teduglutide; format: in vivo, human
Procedure: This was an open-label, pilot study to determine the safety and effect of teduglutide in patients with short bowel syndrome (SBS). The patient's history was reviewed and a physical examination performed to determine eligibility before inclusion in the study. Estimated residual small intestine and colon lengths were determined by reviewing operative reports and available radiographic studies. Eligible patients were admitted as inpatients to hospital wards or General Clinic Research Centers (GCRC) on three separate occasions, 18 days apart, for the last four days and three nights of the baseline period and at the end of the treatment and follow-up periods. Treatment consisted of recombinant teduglutide (supplied by NPS Allelix, Mississauga, ON, Canada) formulated as a lyophilized powder with L-histidine, mannitol, and monobasic and dibasic sodium phosphate (Lot 8502901). Water was added to reconstitute the drug for administration by subcutaneous (s.c.) injections in the abdomen or thigh. Ten SBS patients with jejunostomy received 0.03 mg/kg/d, 0.10 mg/kg/d or 0.15 mg/kg/d once daily for 21 days. Five SBS patients with ≥50% colon-in-continuity received teduglutide 0.10 mg/kg/d once daily for 21 days.
The 72-hour nutrient balance studies were completed with each patient eating their usual diet, calculated from a seven-day food diary completed by the patient during the screening period. It was intended that patients eat the same quantity and quality of food and beverages during each admission. During the 72-hour balance periods, all oral intake (duplicate meals and beverages and declined food), fecal/stomal output, and urine were collected and weighed. All stool samples were refrigerated during the collection period. Stools and diets were separately homogenized and analyzed for energy content (by bomb calorimetry), nitrogen (by the macro-Kjeldahl's method), fat (by the gravimetric technique), and sodium and potassium (by atomic absorption).
Using the SAS (Version 8.2; SAS Institute, Cary, N.C.) statistical program, a Student's paired t test was employed that compared treatment to baseline values, and follow-up to baseline values. No comparisons were made between patients on different doses or with different anatomy due to the limited number of patients in the study. Data are expressed as mean±SD. A value of p<0.05 was considered significant.

[2] = Body weight following teduglutide treatment; format: in vivo, human; settings: not significant (p=0.120)
[3] = Group 3 SBS ≥50% colon-in-continuity, N=5, follow-up Days 39-42 vs baseline
[4] = Group 3 SBS ≥50% colon-in-continuity, of N=5
[5] = Group 4 SBS high dietary compliance, N=10, 21 days, Days 18-21 vs baseline
[6] = Group 4 SBS high dietary compliance, N=10, follow-up Days 39-42 vs baseline
[7] = Group 4 SBS high dietary compliance, of N=10

CC[C@H](C)[C@H](NC(=O)[C@H](Cc1ccccc1)NC(=O)[C@H](CC(=O)O)NC(=O)[C@H](CCCNC(=N)N)NC(=O)[C@H](C)NC(=O)[C@H](C)NC(=O)[C@H](CC(C)C)NC(=O)[C@H](CC(N)=O)NC(=O)[C@H](CC(=O)O)NC(=O)[C@H](CC(C)C)NC(=O)[C@@H](NC(=O)[C@@H](NC(=O)[C@H](CC(N)=O)NC(=O)[C@H](CCSC)NC(=O)[C@H](CCC(=O)O)NC(=O)[C@H](CC(=O)O)NC(=O)[C@H](CO)NC(=O)[C@H](Cc1ccccc1)NC(=O)[C@H](CO)NC(=O)CNC(=O)[C@H](CC(=O)O)NC(=O)CNC(=O)[C@@H](N)Cc1c[nH]cn1)[C@@H](C)O)[C@@H](C)CC)C(=O)N[C@@H](CC(N)=O)C(=O)N[C@@H](Cc1c[nH]c2ccccc12)C(=O)N[C@@H](CC(C)C)C(=O)N[C@H](C(=O)N[C@@H](CCC(N)=O)C(=O)N[C@H](C(=O)N[C@@H](CCCCN)C(=O)N[C@H](C(=O)N[C@H](C(=O)N[C@@H](CC(=O)O)C(=O)O)[C@@H](C)O)[C@@H](C)CC)[C@@H](C)O)[C@@H](C)CC [teduglutide, [Gly2]hGLP-2]
Wet Weight Absorption (% of intake), Effect at Follow up (Follow up minus Baseline) mean ± SD [1, 3]: 17 ± 30 % of intake
Wet Weight Absorption, Effect at Follow up (Follow up minus Baseline) mean ± SD [1, 3]: 352 ± 525 g/day
Wet Weight Fecal, Effect at Follow up (Follow up minus Baseline) mean ± SD [1, 3]: -240 ± 426 g/day
Energy Absorption (% of intake), Patients With Beneficial Effect [1, 4]: 5
Energy Absorption (kJ/day), Patients With Beneficial Effect [1, 4]: 5
Energy Fecal, Patients With Beneficial Effect [1, 4]: 4
Urine Wet Weight, Patients With Beneficial Effect [1, 4]: 5
Wet Weight Absorption (% of intake), Patients With Beneficial Effect [1, 4]: 5
Wet Weight Absorption (g/day), Patients With Beneficial Effect [1, 4]: 5
Wet Weight Fecal, Patients With Beneficial Effect [1, 4]: 5
decrease in fecal wet weight compared to baseline ([1]; Group 3 SBS ≥50% colon-in-continuity, 21-day treatment, stated as decrease): 822 ± 341 g/day
Energy Absorption (% of intake), Effect of Treatment (Treatment minus Baseline) mean ± SD [1, 5]: 8±11 % of intake
Energy Absorption, Effect of Treatment (Treatment minus Baseline) mean ± SD [1, 5]: 963 ± 1290 kJ/day
Energy Fecal, Effect of Treatment (Treatment minus Baseline) mean ± SD [1, 5]: -1060 ± 1083 kJ/day
Urine Wet Weight, Effect of Treatment (Treatment minus Baseline) mean ± SD [1, 5]: 725 ± 394 g/day
Wet Weight Absorption (% of intake), Effect of Treatment (Treatment minus Baseline) mean ± SD [1, 5]: 23 ± 16 % of intake
Wet Weight Absorption, Effect of Treatment (Treatment minus Baseline) mean ± SD [1, 5]: 746 ± 436 g/day
Wet Weight Fecal, Effect of Treatment (Treatment minus Baseline) mean ± SD [1, 5]: -769 ± 447 g/day
Energy Absorption (% of intake), Effect at Follow up (Follow up minus Baseline) mean ± SD [1, 6]: 3 ± 16 % of intake
Energy Absorption, Effect at Follow up (Follow up minus Baseline) mean ± SD [1, 6]: 452 ± 1211 kJ/day
Energy Fecal, Effect at Follow up (Follow up minus Baseline) mean ± SD [1, 6]: -98 ± 1674 kJ/day
Urine Wet Weight, Effect at Follow up (Follow up minus Baseline) mean ± SD [1, 6]: 30 ± 285 g/day
Wet Weight Absorption (% of intake), Effect at Follow up (Follow up minus Baseline) mean ± SD [1, 6]: 0 ± 27 % of intake
Wet Weight Absorption, Effect at Follow up (Follow up minus Baseline) mean ± SD [1, 6]: 24 ± 576 g/day
Wet Weight Fecal, Effect at Follow up (Follow up minus Baseline) mean ± SD [1, 6]: 93 ± 500 g/day
Energy Absorption (% of intake), Patients With Beneficial Effect [1, 7]: 9
Energy Absorption (kJ/day), Patients With Beneficial Effect [1, 7]: 9
Energy Fecal, Patients With Beneficial Effect [1, 7]: 8
Urine Wet Weight, Patients With Beneficial Effect [1, 7]: 10
Wet Weight Absorption (% of intake), Patients With Beneficial Effect [1, 7]: 9
Wet Weight Absorption (g/day), Patients With Beneficial Effect [1, 7]: 9
Wet Weight Fecal, Patients With Beneficial Effect [1, 7]: 9
decrease in fecal energy excretion compared to baseline ([1]; Group 4 SBS high dietary compliance, stated as reduction): 1060 ± 1083 kJ/day
improved wet weight absorption ([1]; SBS patient population): 0.75 L
effect on absolute energy absorption relative to native GLP-2 ([1]; at the given doses and treatment periods): 1.5 to 4 fold
reversal of changes at follow-up ([1]; follow-up after cessation of dosing): Most changes in intestinal absorption and histology related to teduglutide treatment had reversed at follow-up
effects on wet weight absorption relative to native GLP-2 pilot study ([1]; in vivo): almost two-fold
number of SBS patients in whom absolute wet weight absorption increased as a percent of intake ([1]; of 15 SBS patients): 13
number of SBS patients with decreases in energy excretion ([1]; of 15 SBS patients): 12
number of SBS patients with increased absolute wet weight absorption compared to baseline ([1]; of 15 SBS patients): 15
number of SBS patients with increased urine weight ([1]; of 15 SBS patients): 13
increase in body weight following teduglutide treatment [2]: 0.9 ± 2.1 kg
